Patent US12534762B2, “Treating atopic dermatitis by targeting the WNT pathway” (Children's Medical Center Corporation, priority 2018, dated 2026)

Tested on: Xenopus embryos
Assay: MO specificity, Western blotting of protein synthesis from co-injected mRNA
Format: in vivo, Xenopus laevis
Conditions: stage 10
Protocol: mRNA and Morpholino injection. For animal cap assays, indicated mRNAs (Tmem79, 100 and 200 pg; Xwnt8, 10 pg; β-catenin 50 pg; Xnr1, 250 pg; BMP4, 100 pg) were injected into the animal pole at 4-cell stage, and animal caps were dissected at stage 9 (in the case of Xwnt8, Xnr1, BMP4) or at stage 8.5 and treated with recombinant proteins (bFGF, 100 ng/ml; hShh, 1.5 ng/mL) until stage 10 before RT-PCR. For Neural induction assay the MO (20 ng) for Tmem79, Usp8 or β-catenin was injected into the animal pole at 4-cell stage, and animal caps were dissected at stage 9 and treated with recombinant protein Noggin (500 ng/mL) until stage 18 before RT-PCR. To examine Tmem79 and Usp8 MOs specificity, […] of mRNA of Xenopus Tmem79, mouse Tmem79, Xenopus Usp8 or xmutUsp8 (Xenopus Usp8 mutated for mismatches with the MO) were injected with a control MO, Tmem79 MO or Usp8 MO (20 ng) into the animal pole at the 2-cell stage and cultured til stage 10 for Western blotting. To knockdown the endogenous xTmem79 or xUsp8, 20 ng of control MO, Tmem79 MO or Usp8 MO were injected into two dorso-animal blastomeres at the 8-cell stage and the phenotype was scored at stage 35. To rescue the Tmem79 MO phenotype, […] of mTmem 79, 20 ng of Usp8 MO or 10 ng of β-catenin MO was injected together with Tmem79 MO (20 ng). RT-PCR primers and Morpholinos. […]

With “Usp8 MO: morpholino against Xenopus Usp8, SEQ ID NO: 26 (antisense GCTGCAAATTCTCCTCTCTTATCAA; all phosphorodiamidate morpholino (PMO); listed as Xenopus laevis)” the “protein synthesis from the Xenopus Usp8 (xUsp8) mRNA” value was “inhibited”.
